Experimental data from ChEMBL document CHEMBL5506053, “Explorations of Agonist Selectivity for the α9* nAChR with Novel Substituted Carbamoyl/Amido/Heteroaryl Dialkylpiperazinium Salts and Their Therapeutic Implications in Pain and Inflammation” (J Med Chem, 2024).
Activity calls are given as the source filed them. The rule behind the calls is not given here.

Columns and labels:
[1] = human, caco-2, 2 h
Description: Apparent permeability across apical to basolateral side in human Caco-2 cells at 5 ug/ml measured after 2 hrs by UPLC-MS/MS analysis

THP-1 [2] = assay: Induction of IL-1beta release in LPS primed monocytic human THP-1 cells at 10 uM primed with LPS for 5 hrs followed by compound addition and further incubated for 40 mins by ELISA; format: functional, cell-based
THP-1 [3] = assay: Cytotoxicity against monocytic human THP-1 cells assessed as effect on lactate dehydrogenase activity in supernatant; format: toxicity, cell-based
[4] = Metabolic stability in pooled BALB/c mouse plasma assessed as half life at 1 uM measured after 0 to 120 mins by UPLC-MS/MS analysis; format: ADME, cell-free; conditions: time 0-120 min
Oocyte [5] = assay: Inhibition of acetylcholine induced response in mouse muscle alpha1beta1epsilondelta nAChR expressed in xenopus laevis oocytes assessed as fold change at 30 uM preincubated with 3 uM acetylcholine followed by compound administration for 12 sec and measured 181 sec post washout by two-electrode voltage-clamp electrophysiology method relative to acetylcholine alone; format: cell-based
[6] = target: T1, Neuronal acetylcholine receptor; alpha4/beta2 (Homo sapiens) (UniProt P17787+P43681); assay: Inhibition of acetylcholine induced response in human alpha4beta2 nAChR expressed in xenopus laevis oocytes assessed as fold change at 30 uM preincubated with 3 uM acetylcholine followed by compound administration for 12 sec and measured 181 sec post washout by two-electrode voltage-clamp electrophysiology method relative to acetylcholine alone; format: cell-based; conditions: Oocyte
[7] = target: T2, Neuronal acetylcholine receptor subunit alpha-9 (Homo sapiens, UniProt Q9UGM1); assay: Agonist activity at human alpha9 nAChR expressed as xenopus laevis oocytes assessed as increase in receptor desensitization by measuring fold change in maximum response (Imax) measured after 120 secs by two-electrode voltage-clamp electrophysiology method relative to acetylcholine; format: cell-based; conditions: Oocyte, filed as agonist, time 120.0 sec
T2 sequence (Q9UGM1 whole entry): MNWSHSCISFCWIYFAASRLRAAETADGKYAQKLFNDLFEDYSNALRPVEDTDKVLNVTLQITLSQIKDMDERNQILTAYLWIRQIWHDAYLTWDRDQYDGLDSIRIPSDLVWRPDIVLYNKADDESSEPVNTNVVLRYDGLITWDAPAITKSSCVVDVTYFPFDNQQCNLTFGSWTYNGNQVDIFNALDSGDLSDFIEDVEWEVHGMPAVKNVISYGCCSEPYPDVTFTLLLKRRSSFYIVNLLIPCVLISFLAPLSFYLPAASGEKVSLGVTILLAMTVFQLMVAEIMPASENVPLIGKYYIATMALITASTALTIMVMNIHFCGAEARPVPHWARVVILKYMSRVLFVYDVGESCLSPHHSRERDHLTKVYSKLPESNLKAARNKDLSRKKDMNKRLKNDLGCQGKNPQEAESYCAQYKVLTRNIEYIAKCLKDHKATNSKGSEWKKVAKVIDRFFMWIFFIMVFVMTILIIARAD

Oocyte [8] = assay: Agonist activity at mouse muscle alpha1beta1epsilondelta nAChR expressed in xenopus laevis oocytes at 30 uM measured after 120 secs by two-electrode voltage-clamp electrophysiology method relative to control; format: cell-based; conditions: time 120.0 sec
[9] = target: T3, Neuronal acetylcholine receptor subunit alpha-7 (Homo sapiens, UniProt P36544); assay: Agonist activity at human alpha7 nAChR expressed as xenopus laevis oocytes assessed as increase in receptor desensitization by measuring fold change in peak current response at 30 uM incubated for 120 secs presence of PNU-120596 by two-electrode voltage-clamp electrophysiology method relative to acetylcholine; format: cell-based; conditions: Oocyte, filed as agonist, time 120.0 sec
T3 sequence (P36544 whole entry): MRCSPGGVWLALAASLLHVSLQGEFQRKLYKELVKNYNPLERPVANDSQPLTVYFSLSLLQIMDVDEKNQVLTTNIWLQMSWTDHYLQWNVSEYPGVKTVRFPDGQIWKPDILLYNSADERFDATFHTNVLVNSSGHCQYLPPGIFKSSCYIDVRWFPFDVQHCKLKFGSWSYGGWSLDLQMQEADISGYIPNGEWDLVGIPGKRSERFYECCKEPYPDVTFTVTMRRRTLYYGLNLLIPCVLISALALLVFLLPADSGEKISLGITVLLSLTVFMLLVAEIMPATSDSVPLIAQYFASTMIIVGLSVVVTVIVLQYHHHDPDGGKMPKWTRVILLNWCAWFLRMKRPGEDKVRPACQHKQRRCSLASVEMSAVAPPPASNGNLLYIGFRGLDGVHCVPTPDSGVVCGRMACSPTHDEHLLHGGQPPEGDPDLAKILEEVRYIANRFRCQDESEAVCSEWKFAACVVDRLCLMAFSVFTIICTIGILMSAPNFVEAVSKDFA

[10] = target: T3, Neuronal acetylcholine receptor subunit alpha-7; assay: Partial agonist activity at human alpha7 nAChR expressed as xenopus laevis oocytes assessed as increase in receptor desensitization by measuring fold change in maximum response (Imax) measured after 120 secs by two-electrode voltage-clamp electrophysiology method relative to acetylcholine; format: cell-based; conditions: Oocyte, filed as partial agonist, time 120.0 sec
[11] = target: T4, Neuronal acetylcholine receptor; alpha9/alpha10 (Homo sapiens) (UniProt Q9UGM1+Q9GZZ6); assay: Agonist activity at human alpha9alpha10 nAChR expressed as xenopus laevis oocytes assessed as increase in receptor desensitization by measuring fold change in maximum response (Imax) measured after 120 secs by two-electrode voltage-clamp electrophysiology method relative to acetylcholine; format: cell-based; conditions: Oocyte, filed as agonist, time 120.0 sec
[12] = target: T5, Neuronal acetylcholine receptor; alpha3/beta4 (Homo sapiens) (UniProt P30926+P32297); assay: Agonist activity at human alpha3beta4 nAChR expressed in xenopus laevis oocytes at 100 uM measured after 120 secs by two-electrode voltage-clamp electrophysiology method relative to control; format: cell-based; conditions: Oocyte, time 120.0 sec
[13] = target: T1, Neuronal acetylcholine receptor; alpha4/beta2 (Homo sapiens); assay: Agonist activity at human alpha4beta2 nAChR expressed in xenopus laevis oocytes at 30 uM measured after 120 secs by two-electrode voltage-clamp electrophysiology method relative to control; format: cell-based; conditions: Oocyte, time 120.0 sec
[14] = target: T5, Neuronal acetylcholine receptor; alpha3/beta4 (Homo sapiens); assay: Inhibition of acetylcholine induced response in human alpha3beta4 nAChR expressed in xenopus laevis oocytes assessed as fold change at 100 uM preincubated with 3 uM acetylcholine followed by compound administration for 12 sec and measured 181 sec post washout by two-electrode voltage-clamp electrophysiology method relative to acetylcholine alone; format: cell-based; conditions: Oocyte
[15] = target: T3, Neuronal acetylcholine receptor subunit alpha-7; assay: Agonist activity at alpha7 nAChR (unknown origin)
[16] = target: Neuronal acetylcholine receptor; alpha9/alpha10 (Homo sapiens, UniProt Q9GZZ6+Q9UGM1); assay: Agonist activity at alpha9alpha10 nAChR (unknown origin); format: protein-complex assay
Chain of Neuronal acetylcholine receptor; alpha9/alpha10 (Q9UGM1 whole entry): as the sequence (Q9UGM1 whole entry) above
Chain of Neuronal acetylcholine receptor; alpha9/alpha10 (Q9GZZ6 whole entry): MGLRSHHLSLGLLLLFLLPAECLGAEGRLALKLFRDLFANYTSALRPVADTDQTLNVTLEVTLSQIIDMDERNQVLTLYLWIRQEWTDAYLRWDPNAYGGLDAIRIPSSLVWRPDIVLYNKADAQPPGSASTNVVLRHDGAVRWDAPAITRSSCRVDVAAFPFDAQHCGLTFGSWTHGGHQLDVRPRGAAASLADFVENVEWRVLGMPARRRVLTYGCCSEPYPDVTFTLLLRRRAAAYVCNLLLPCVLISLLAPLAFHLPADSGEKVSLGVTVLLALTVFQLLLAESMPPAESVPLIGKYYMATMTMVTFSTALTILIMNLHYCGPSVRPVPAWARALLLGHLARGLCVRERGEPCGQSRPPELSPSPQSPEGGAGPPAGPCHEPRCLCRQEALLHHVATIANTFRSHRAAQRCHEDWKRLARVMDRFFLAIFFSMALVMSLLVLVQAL

PBMC [17] = assay: Inhibition of ATP-mediated IL-1beta release in LPS primed BzATP induced human PBMC cells at 100 uM primed with LPS for 3 hrs followed by BzATP and compound addition for 30 mins by ELISA; format: functional, cell-based
[18] = target: T2, Neuronal acetylcholine receptor subunit alpha-9; assay: Agonist activity at alpha9 nAChR (unknown origin)
PBMC [19] = assay: Inhibition of ATP-mediated IL-1beta release in LPS primed BzATP induced human PBMC cells at 100 fM primed with LPS for 3 hrs followed by BzATP and compound addition for 30 mins by ELISA; format: functional, cell-based
cells = conditions: Homo sapiens, THP-1
Description: Inhibition of ATP-mediated IL-1beta release in LPS primed BzATP induced monocytic human THP-1 cells primed with LPS for 5 hrs followed by BzATP and compound addition for 40 mins by ELISA

[20] = Selectivity ratio for agonist activity at alpha7 nAChR (unknown origin) to agonist activity at alpha9 nAChR (unknown origin)
[21] = target: T2, Neuronal acetylcholine receptor subunit alpha-9; assay: Partial agonist activity at human alpha9 nAChR expressed as xenopus laevis oocytes assessed as increase in receptor desensitization by measuring fold change in maximum response (Imax) measured after 120 secs by two-electrode voltage-clamp electrophysiology method relative to acetylcholine; format: cell-based; conditions: Oocyte, filed as partial agonist, time 120.0 sec
[22] = target: T3, Neuronal acetylcholine receptor subunit alpha-7; assay: Agonist activity at human alpha7 nAChR expressed as xenopus laevis oocytes assessed as increase in receptor desensitization by measuring fold change in maximum response (Imax) measured after 120 secs by two-electrode voltage-clamp electrophysiology method relative to acetylcholine; format: cell-based; conditions: Oocyte, filed as agonist, time 120.0 sec
[23] = target: T4, Neuronal acetylcholine receptor; alpha9/alpha10 (Homo sapiens); assay: Partial agonist activity at human alpha9alpha10 nAChR expressed as xenopus laevis oocytes assessed as increase in receptor desensitization by measuring fold change in maximum response (Imax) measured after 120 secs by two-electrode voltage-clamp electrophysiology method relative to acetylcholine; format: cell-based; conditions: Oocyte, filed as partial agonist, time 120.0 sec
[24] = target: T4, Neuronal acetylcholine receptor; alpha9/alpha10 (Homo sapiens); assay: Agonist activity at alpha9alpha10 nAChR (unknown origin) assessed as fold change in maximum response (Imax) relative to acetylcholine; format: protein-complex assay; conditions: filed as agonist
[25] = target: T3, Neuronal acetylcholine receptor subunit alpha-7; assay: Ratio for agonist activity at human alpha7 nAChR expressed as xenopus laevis oocytes assessed as increase in receptor desensitization by measuring fold change in peak current response to agonist activity at human alpha7 nAChR expressed as xenopus laevis oocytes assessed as increase in receptor desensitization by measuring fold change in peak current response in presence of PNU-120596; format: cell-based; conditions: Oocyte

Structure (SMILES)	fold change (FC) (Oocyte [5])	fold change (FC) [6]	fold change (FC) [7]	Activity (Oocyte [8]) [%]	fold change (FC) [9]	fold change (FC) [11]	Activity [12] [%]	Activity [13] [%]	fold change (FC) [14]	fold change (FC) [22]	also measured
C[C@H]1O[C@@H](O[C@H]2[C@@H](O)C[C@H](O[C@H]3[C@@H](O)C[C@H](O[C@H]4CC[C@@]5(C)[C@H](CC[C@@H]6[C@@H]5C[C@@H](O)[C@]5(C)[C@@H](C7=CC(=O)OC7)CC[C@]65O)C4)O[C@@H]3C)O[C@@H]2C)C[C@H](O)[C@@H]1O [DIGOXIN]											Papp [1]: 5.4 10^-6 cm/s
CC(=O)OCC[N+](C)(C)C [ACETYLCHOLINE]											Activity (THP-1 [2]): inactive; Activity (THP-1 [3]): Non-Toxic
CCN(CC)CCOC(=O)c1ccc(N)cc1 [PROCAINE]											t1/2 [4]: < 5 min
CC[N+]1(CC)CCN(c2ccc(-c3ncco3)cc2)CC1	0.353	0.823	1.29	< 1	0.05	0.83	< 1	< 1	0.507		fold change (FC) [10]: 0.12
CC[N+]1(CC)CCN(c2ccc(C(=O)Nc3cccc(C)c3)cc2)CC1	0.555	0.807	1.25	< 1	0.17	1.12	< 1	< 1	1.04		fold change (FC) [10]: 0.6
CC[N+]1(CC)CCN(c2ccc(C(=O)Nc3cccc(C)n3)cc2)CC1.[I-]											Activity (THP-1 [2]): inactive; Activity (THP-1 [3]): Non-Toxic; EC50 [15]: 6.4 µM; EC50 [16]: 980 nM; inhibition (PBMC [17]): inactive; EC50 [18]: 660 nM; inhibition (PBMC [19]): Active; IC50 (cells): 14 µM
CC[N+]1(CC)CCN(c2ccc(C(N)=O)cc2)CC1			0.8		0.18	1.19					Selectivity ratio [20]: 66; fold change (FC) [10]: 0.34
CC[N+]1(CC)CCN(c2ccc(C(=O)N3CCCC3)cc2)CC1	0.541	0.919		< 1	0.01	0.56	< 1	< 1	0.849	0.06	fold change (FC) [21]: 0.69
CC[N+]1(C)CCN(c2ccc(NC(C)=O)cc2)CC1	0.409	1.19	0.75	< 1	0.15		< 1	< 1	0.798		fold change (FC) [23]: 3.3
CC[N+]1(CC)CCN(c2ccc(C#N)cc2)CC1											EC50 [16]: 2570 nM; fold change (FC) [24]: 0.94; EC50 [18]: 368 nM
CC[N+]1(CC)CCN(c2ccc(C(=O)Nc3ccccn3)cc2)CC1	0.506	0.697	1.18	< 1	0.12	0.94	< 1	< 1	0.789	0.46	
CC[N+]1(CC)CCN(c2ccc(NC(=O)c3cccc(C)n3)cc2)CC1	0.38	1.07	1.24	< 1	31.8		< 1	< 1	0.415	0.14	fold change (FC) [23]: 0.53; Ratio [25]: 227
Cc1cccc(NC(=O)c2ccc(N3CC[N+](C)(C)CC3)cc2)n1	0.709	0.912		< 1	0.16	0.89	< 1	< 1	0.838	0.57	fold change (FC) [21]: 0.51
CC[N+]1(CC)CCN(c2ccc(-n3cccn3)cc2)CC1	0.59	0.913	1.01	< 1	0.17		< 1	< 1	0.736		fold change (FC) [23]: 0.59; fold change (FC) [10]: 0.088
CC(C)NCC(O)COc1cccc2ccccc12 (stereo unspecified) [PROPRANOLOL]											Papp [1]: 20 10^-6 cm/s
CC[N+]1(CC)CCN(c2ccc(-n3cccc3)cc2)CC1	0.691	0.709		< 1	0.08	0.17	< 1	< 1	0.387	0.041	fold change (FC) [21]: 0.27
CCCNC(=O)c1ccc(N2CC[N+](CC)(CC)CC2)cc1	0.709	0.946	1.13	< 1	0.19		< 1	< 1	0.65	0.38	fold change (FC) [23]: 0.79
